Series [1] relates to NF-κB promoter activity in H9c2 cells. Kind of series: NF-κB Inhibition Assay (NF-κB promoter luciferase, TNFα stimulated). Format: cell-based. The note with it: Rattus norvegicus. The procedure:
The NF-κB promoter assay is conducted as follows: rat cardiac myoblasts H9c2 cells were purchased from ATCC (Manassas, Va.). Cultures were maintained in Dulbecco's modified Eagle's medium (DMEM, Invitrogen Life Technologies, Carlsbad, Calif.) supplemented with 10% fetal bovine serum, 100 units/ml penicillin, and 50 μg/ml streptomycin (Invitrogen life technologies, Carlsbad, Calif.). Typically, 1×10^4 cells grown in 96-well plates were transiently transfected with 0.45 μg total DNA per well using Lipofectamine 2000 (Invitrogen life technologies, Carlsbad, Calif.). In all transfections, a construct with the thymidine kinase promoter and the Renilla luciferase reporter gene (pRL-TK, Promega, Madison, Wis.) was included as an internal control in addition to the luciferase promoter. One day after transfection, cells were treated with the extracts at indicated concentrations and stimulated with 100 ng/mL of Tumor Necrosis Factor-a (TNFα, Sigma-Aldrich, St Louis, Mo.) for approximately 24 hours before they were lysed for luciferase assays, using Dual-Luciferase Reporter System from Promega (Madison, Wis.), following manufacturer's protocol. Briefly, the firefly luciferase activity was measured first (representing NF-κB promoter activity), followed by the renilla luciferase (internal control), using luminometer LMAX, from Molecular Devices (Sunnyvale, Calif.). […]

The subject of series [2] is MatTek's MelanoDerm skin epidermal equivalent tissues (MEL-300-B; NHEK and NHM). Kind of series: Skin Epidermal Equivalents Model as a Skin Lightening Test (ΔL). Format: cell-based, human. The note with it: topical daily 8 days, measured day 9. The source says:
Skin epidermal equivalent tissues are available commercially from MatTek's MelanoDerm™ System and were used for the following tests. MatTek's MelanoDerm™ System consists of normal, human-derived epidermal keratinocytes (NHEK) and melanocytes (NHM) which have been cultured to form a multilayered, highly differentiated model of the human epidermis. Specifically, MEL-300-B tissues, each 9 mm in diameter were used in the following tests.
The test materials prepared in an appropriate vehicle and tested concentrations were applied topically to the skin model daily and the experiment lasted for 8 days. Measurement was taken on day 9.
The macroscopic and microscopic visual tissue darkening end points were measured by taking pictures with a digital camera. The Degree of Lightness for each tissue (L-Value) was measured using a spectrophotometer (Konica Minolta CM-2600d). The ΔL (degree of lightness as compared to control) for each test sample is calculated as per following formula:
ΔL=L-value of treated sample−L-value of control sample.

Series [3] concerns skin epidermal tissues (MelanoDerm). In words: Cell Viability Test (MTT) on skin epidermal tissues. Format: cell-based, human. The note with it: at tested concentrations; ≧30% reduction of cell viability = significant. The procedure:
Cell Viability of the tissue during experiment was evaluated using the MTT assay described as follows. The MTT Tissue Viability Assay is a colorimetric assay system that measures the reduction of a yellow Methylthiazolyldiphenyl-tetrazolium bromide (MTT) into an insoluble purple product by the mitochondria of viable cells. The skin epidermal tissues used previously to determine degree of lightness for each test material and of untreated tissues were used to determine percent viable cells remaining at the end of the experiment. The skin epidermal tissues after degree of lightness test were incubated with MTT reagent for 3 h. After incubation extraction buffer is added to lyse the cells and allowed to continue overnight. Samples are read using a plate reader at a wavelength of 570 nm and compared against untreated control and expressed in % Cell Viability as of control. A reduction of ≧30% cell viability as of control consider as a significant indication of cell cytotoxicity caused by the test materials. The amount of purple color produced is directly proportional to the number of viable cells.
Cytotoxicity potential was determined by MTT assay for all extracts and calculated as % reduction of cell viability as compared to control, wherein >30% reduction of cell viability constitute significant cytotoxicity issues.

Each structure is given as a SMILES string. In brackets after ≈: the same amount, converted by molar mass.

Turning to `OC12COC(c3ccc4c(c3)OCO4)C1COC2c1ccc2c(c1)OCO2` (centres unmarked) [Paulownin], in series [1], the IC50 was 148 µg/mL (≈ 400 µM). Besides, the “Degree of Lightness (ΔL)” value in series [2] (Conc. 0.5%) came out at 0.69; in series [2] (Conc. 1%), 1.52; in series [2] (Conc. 2%) it was 2.79. Further, the “Cytotoxicity potential by MTT assay” value in series [3] is recorded as “did not show any significant cytotoxicity”.

Values taken from patent US20160038392A1, “COMPOSITIONS COMPRISING PAULOWNIN AND/OR PAULOWNIA EXTRACTS AND USES THEREOF” (Johnson & Johnson Consumer Inc., priority 2010, published 2016).
